Assay results as given in publication PMC5851644, “Development of Potent Inhibitors of Receptor Tyrosine Kinases by Ligand-Based Drug Design and Target-Biased Phenotypic Screening” (Journal of Medicinal Chemistry, 2018).
pEC50, pIC50: −log10 of the molar value.

Key:
AKT = experiment: Kinase IC50, 33P radioisotope assay (Reaction Biology); assay type: biochemical; details: recombinant kinase, 10 μM ATP
Experimental: The panel, which included the three members of the TAM family, was selected based on the selectivity profile frequently found for other AXL inhibitors.[9] Kinase inhibition studies were performed by Reaction Biology Corporation, USA, by measuring ^33P incorporation on the corresponding kinase substrate relative to DMSO.
To understand how these structural changes had affected the kinase selectivity of the new compounds, 12a–d were screened against the 12-member panel of kinases used for previous hits. As before, kinase inhibition screenings were performed using radioisotope based methods by Reaction Biology Corporation.
(§1) 6.2. Dose response cell viability assay
(§2) with 95 µl of fresh medium.
(§3) a separate 96-well intermediate plate.
(§4) containing cells. […] After 5 d, PrestoBlue™ cell
(§5) 6.3. Kinase screening assay

BT474 cells (AXL–) = experiment: Dose response cell viability assay (PrestoBlue, day 5); assay type: cell-based; details: Homo sapiens, BT-474, 120 h, PrestoBlue at day 5
[1] = system: AXL-overexpressing mouse breast cancer cells (AXL+); experiment: as above; assay type: cell-based; details: PrestoBlue at day 5
MOLM-13 cells = experiment: as above; assay type: cell-based; details: Homo sapiens, MOLM-13, 120 h; PrestoBlue at day 5
Experimental: as §1, §2, §3, §4, §5

MV4-11 cells = experiment: as above; assay type: cell-based; details: Homo sapiens, MV4-11, 120 h; PrestoBlue at day 5
Experimental: as §1, §2, §3, §4, §5

AXL = molecular target: T1, AXL (Homo sapiens, UniProt P30530); details: cited from earlier work
T1 construct: purchased Reaction Biology Corporation
T1 sequence (P30530 26-894): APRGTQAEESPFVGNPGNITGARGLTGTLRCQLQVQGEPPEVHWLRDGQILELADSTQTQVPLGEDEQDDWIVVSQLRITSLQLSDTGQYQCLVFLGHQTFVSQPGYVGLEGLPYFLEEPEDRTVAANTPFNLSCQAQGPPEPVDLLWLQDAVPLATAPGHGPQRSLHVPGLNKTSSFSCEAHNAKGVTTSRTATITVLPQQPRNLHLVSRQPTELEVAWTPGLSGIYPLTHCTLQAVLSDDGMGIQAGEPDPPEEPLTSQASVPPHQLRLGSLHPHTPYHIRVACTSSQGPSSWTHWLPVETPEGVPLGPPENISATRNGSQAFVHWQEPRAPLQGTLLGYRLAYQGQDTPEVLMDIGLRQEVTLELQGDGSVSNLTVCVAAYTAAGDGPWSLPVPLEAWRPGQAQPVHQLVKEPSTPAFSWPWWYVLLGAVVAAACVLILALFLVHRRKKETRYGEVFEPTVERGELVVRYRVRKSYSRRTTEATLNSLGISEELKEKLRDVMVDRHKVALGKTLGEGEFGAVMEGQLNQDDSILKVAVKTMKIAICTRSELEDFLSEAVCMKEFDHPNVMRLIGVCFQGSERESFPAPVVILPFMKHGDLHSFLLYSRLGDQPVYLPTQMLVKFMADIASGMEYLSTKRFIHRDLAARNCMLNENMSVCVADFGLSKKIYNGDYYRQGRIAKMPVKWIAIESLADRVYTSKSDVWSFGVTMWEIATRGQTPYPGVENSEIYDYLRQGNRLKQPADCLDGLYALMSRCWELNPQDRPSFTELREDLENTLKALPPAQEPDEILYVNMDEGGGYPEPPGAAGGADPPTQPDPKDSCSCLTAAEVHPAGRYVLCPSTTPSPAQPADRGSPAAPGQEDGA

| SMILES | pIC50 (AKT) | pEC50 (BT474 cells (AXL–)) | pEC50 ([1]; Mus musculus, 120 h) | further results |
| --- | --- | --- | --- | --- |
| CNc1ncc2c(-c3ccc(OC)cc3)nn(CC3CCCC3)c2n1 [Compound 7a] |  | 4.62 | 4.85 |  |
| CNc1ncc2c(-c3cccc(C(N)=O)c3)nn(CC3CCCC3)c2n1 [Compound 7e] |  | 4.61 | 4.79 |  |
| CNc1ncc2c(-c3ccc(N4CCNCC4)nc3)nn(CC3CCCC3)c2n1 [Compound 7f] | < 5.00 |  |  |  |
| CNc1ncc2c(-c3ccc(N4CCNCC4)nc3)nn(CC3OCCO3)c2n1 [Compound 7g] | < 5.00 | 4.69 |  | pEC50 [1]: 4.99 |
| CNc1ncc2c(-c3ccc(OC)cc3)nn(CC3OCCO3)c2n1 [Compound 7h] | < 5.00 | 4.88 |  | pEC50 [1]: 5.30 |
| CNc1ncc2c(-c3ccc(F)cc3)nn(CC3OCCO3)c2n1 [Compound 7i] |  | 4.22 | 4.18 |  |
| CNc1ncc2c(-c3ccc(N4CCNCC4)nc3)nn(Cc3cn(Cc4ccccc4)nn3)c2n1 [Compound 10a] | < 5.00 | 5.44 | 5.83 |  |
| CNc1ncc2c(-c3ccc(N4CCNCC4)nc3)nn(Cc3cn(C4CCCC4O)nn3)c2n1 (centres unmarked) [Compound 10b] |  | 4.74 | 4.47 |  |
| CCN1CCN(c2ccc(-c3nn(Cc4cn(Cc5ccccc5)nn4)c4nc(NC)ncc34)cn2)CC1 [Compound 12c] |  | < 4.00 | < 4.00 |  |
| CNc1ncc2c(-c3ccc(N4CCN(C(=O)C(C)(C)C)CC4)nc3)nn(Cc3cn(Cc4ccccc4)nn3)c2n1 [Compound 12d] | < 5.00 | 4.91 | 5.04 |  |
| CNc1ccc(-c2nn(Cc3cn(Cc4ccccc4)nn3)c3nc(NC)ncc23)cn1 [Compound 12f] |  | < 4.00 | < 4.00 | EC50 (AXL+ cells) [1]: completely inactive |
| CNc1ncc2c(-c3ccc(N4CCN(C)CC4)nc3)nn(CC3CCCC3)c2n1 [Compound 13b] | < 5.00 |  |  | pEC50 (MOLM-13 cells): 7.40; pEC50 (MV4-11 cells): 6.31 |
| CNc1ncc2c(-c3ccc(N4CCN(C(=O)C(C)(C)C)CC4)nc3)nn(CC3CCCC3)c2n1 [Compound 13d] | < 5.00 |  |  | pEC50 (MOLM-13 cells): 5.89; pEC50 (MV4-11 cells): 5.84 |
| COc1cc2c(Oc3ccc(NC(=O)C4(C(=O)Nc5ccc(F)cc5)CC4)cc3F)ccnc2cc1OCCCN1CCOCC1 [foretinib] |  |  |  | reported to inhibit AXL at (AXL): 11 nM |

Now from value to compound, other results behind:

| pIC50 (AKT) | pEC50 (BT474 cells (AXL–)) | pEC50 ([1]; Mus musculus, 120 h) | SMILES | further results |
| --- | --- | --- | --- | --- |
| < 5.00 |  |  | Nc1nc(Nc2ccc3c(c2)CC[C@@H](N2CCCC2)CC3)nn1-c1cc2c(nn1)-c1ccccc1CCC2 [BGB324, reference compound] |  |
|  | 4.59 | 4.85 | CNc1ncc2c(-c3ccc(OC)c(OC)c3)nn(CC3CCCC3)c2n1 [Compound 7b] |  |
| < 5.00 | 5.19 | 5.74 | CNc1ncc2c(-c3ccc(N4CCNCC4)nc3)nn(Cc3cn(-c4ccsc4C(=O)OC)nn3)c2n1 [Compound 10d] |  |
|  | 4.78 | 5.43 | CNc1ncc2c(-c3ccc(N4CCNCC4)nc3)nn(Cc3cn(-c4ccc(OC)cc4)nn3)c2n1 [Compound 10f] |  |
| < 5.00 | 4.49 | 4.40 | CNc1ncc2c(-c3ccc(N4CCNCC4)cc3)nn(Cc3cn(Cc4ccccc4)nn3)c2n1 [Compound 12a] |  |
| < 5.00 | 4.59 | 5.16 | CNc1ncc2c(-c3ccc(N4CCN(C)CC4)nc3)nn(Cc3cn(Cc4ccccc4)nn3)c2n1 [Compound 12b] |  |
| < 5.00 |  |  | CCN1CCN(c2ccc(-c3nn(CC4CCCC4)c4nc(NC)ncc34)cn2)CC1 [Compound 13c] | pEC50 (MOLM-13 cells): 6.03; pEC50 (MV4-11 cells): 5.46 |
